One experiment deals with E. coli TK-3. The experiment is described as follows: Antibacterial activity (MIC, agar dilution) against E. coli TK-3*. It counts as cell-based. The conditions noted are these: Escherichia coli. Here is the method:
(§1) According to Chemotherapy, vol. 29, No. 1, pp. 76-79 (1981), bacterium was cultured in peptone broth manufactured by Eiken Kagaku K.K. at 37° C. for 20 hours to prepare a bacterial solution of 10^8 cells/ml, and one loopful of the bacterial solution was inoculated into Heart Infusion agar medium (manufactured by Eiken Kagaku K.K.) containing a drug, cultured at 37° C. for 20 hours, after which growth of bacterium was observed. The minimum concentration at which the growth of bacterium was prevented was indicated as MIC (μg/ml).
(§2) *means that β-lactamaseproducing bacteria.

Another experiment concerns S. marcescens W-8. The experiment in a line: Antibacterial activity (MIC, agar dilution) against S. marcescens W-8*. It counts as cell-based. The conditions noted are these: Serratia marcescens. Here is the method:
as §1, §2
(In agar dilution the substance is mixed into plates at graded concentrations.)

Setting [1] is: TK3, E. coli TK-3* (β-lactamase-producing bacteria), Heart Infusion agar, 37° C., 20 hours, one loopful of 10^8 cells/ml, read-out: MIC.
The mark [2] stands for this setting: W8, S. marcescens W-8* (β-lactamase-producing bacteria), Heart Infusion agar, 37° C., 20 hours, one loopful of 10^8 cells/ml, read-out: MIC.

Each structure is given as a SMILES string. Converted amounts (≈) assume the structure as drawn. Read-outs that look alike come from different tables or passages of the source.

As to `NC(=O)NN1CCN([C@]2(C(=O)O)CN3C(=O)[C@@H](NC(=O)C(c4ccc(N)cc4)S(=O)(=O)O)[C@H]3S2)C1=O` (stereo partly shown) [compound 30], the MIC (commonly the lowest concentration found to suppress growth) in the experiment on E. coli TK-3 (setting [1]) stood at 6.25 µg/mL (≈ 11.5 µM); with S. marcescens W-8 (setting [2]), 1.56 µg/mL (≈ 2.87 µM).

As for `C=CC=NN1CCN([C@]2(C(=O)O)CN3C(=O)[C@@H](NC(=O)C(c4cc(O)c(O)cc4Cl)S(=O)(=O)O)[C@H]3S2)C1=O` (stereo partly shown) [compound 49], the MIC with E. coli TK-3 (TK3, 20 h) was at most 0.05 µg/mL; against S. marcescens W-8 (W8, 20 h), at most 0.05 µg/mL.

In the case of `O=C(O)CC(=O)NN1CCN([C@]2(C(=O)O)CN3C(=O)[C@@H](NC(=O)C(C(=O)O)c4ccc(O)cc4)[C@H]3S2)C1=O` (stereo partly shown) [compound 15], the MIC with E. coli TK-3 (setting [1]) and with S. marcescens W-8 (setting [2]) was 12.5 µg/mL (≈ 22.7 µM) throughout.

Consider `NC(=O)NN1CCN([C@]2(C(=O)O)CN3C(=O)[C@@H](NC(=O)[C@@H](c4ccc(N)cc4Cl)S(=O)(=O)O)[C@H]3S2)C1=O` [compound 35], for which the MIC was 1.56 µg/mL (≈ 2.7 µM) with E. coli TK-3 (setting [1]) and 0.78 µg/mL (≈ 1.35 µM) against S. marcescens W-8 (W8, 20 h).

On to `NC(=O)NN1CCN([C@]2(C(=O)O)CN3C(=O)[C@@H](NC(=O)C(C(=O)O)c4ccc(O)c(O)c4)[C@H]3S2)C1=O` (stereo partly shown) [compound 24], for which the minimal inhibitory concentration (MIC) in the experiment with E. coli TK-3 (setting [1]) turned out to be 25 µg/mL (≈ 47.7 µM); with S. marcescens W-8 (setting [2]) it was 12.5 µg/mL (≈ 23.8 µM).

As to `NC(=O)C=CC=NN1CCN([C@]2(C(=O)O)CN3C(=O)[C@@H](NC(=O)C(C(=O)O)c4ccccc4)[C@H]3S2)C1=O` (stereo partly shown) [compound 33], the MIC with E. coli TK-3 (setting [1]) was determined as 0.39 µg/mL (≈ 0.735 µM); in the experiment with S. marcescens W-8 (setting [2]) it was 0.2 µg/mL (≈ 0.377 µM).

On to `O=C(O)C=CC=NN1CCN([C@]2(C(=O)O)CN3C(=O)[C@@H](NC(=O)C(c4cc(O)c(O)cc4Cl)S(=O)(=O)O)[C@H]3S2)C1=O` (stereo partly shown) [compound 48], for which the minimal inhibitory concentration (MIC) with E. coli TK-3 (setting [1]) and with S. marcescens W-8 (setting [2]) was 0.1 µg/mL (≈ 0.158 µM) throughout.

On to `NC(=O)NN1CCN([C@]2(C(=O)O)CN3C(=O)[C@@H](NC(=O)[C@@H](c4ccc(O)cc4Cl)S(=O)(=O)O)[C@H]3S2)C1=O` [compound 37], for which the MIC in the experiment with E. coli TK-3 (TK3, 20 h) was 0.78 µg/mL (≈ 1.35 µM); with S. marcescens W-8 (setting [2]), 0.2 µg/mL (≈ 0.345 µM).

Take `NC(=O)NN1CCN([C@]2(C(=O)O)CN3C(=O)[C@@H](NC(=O)[C@@H](c4ccc(O)cc4F)S(=O)(=O)O)[C@H]3S2)C1=O` [compound 38]: the MIC in the experiment on E. coli TK-3 (setting [1]) worked out at 1.56 µg/mL (≈ 2.77 µM); against S. marcescens W-8 (W8, 20 h), 0.78 µg/mL (≈ 1.39 µM).

Regarding `NC(=O)NN1CCN([C@]2(C(=O)O)CN3C(=O)[C@@H](NC(=O)C(C(=O)O)c4cc(O)c(O)cc4Cl)[C@H]3S2)C1=O` (stereo partly shown) [compound 25], the figures for the minimum inhibitory concentration (MIC) in the experiment on E. coli TK-3 (setting [1]) and in the experiment on S. marcescens W-8 (setting [2]) were 6.25 µg/mL (≈ 11.2 µM) and 12.5 µg/mL (≈ 22.4 µM), respectively.

On to `O=C(O)C(C(=O)N[C@@H]1C(=O)N2C[C@@](C(=O)O)(N3CCN(N=C4SCCS4)C3=O)S[C@H]12)c1ccc(O)c(O)c1` (stereo partly shown) [compound 23], for which the MIC in the experiment with E. coli TK-3 (setting [1]) and in the experiment with S. marcescens W-8 (setting [2]) was 3.13 µg/mL (≈ 5.36 µM) throughout.

Take `C=CC=NN1CCN([C@]2(C(=O)O)CN3C(=O)[C@@H](NC(=O)C(C(=O)O)c4ccccc4)[C@H]3S2)C1=O` (stereo partly shown) [compound 10]: the minimal inhibitory concentration (MIC) with E. coli TK-3 (setting [1]) was found to be 0.1 µg/mL (≈ 0.205 µM); with S. marcescens W-8 (W8, 20 h), 0.05 µg/mL (≈ 0.103 µM).

As to `NC(=O)NN1CCN([C@]2(C(=O)O)CN3C(=O)[C@@H](NC(=O)[C@@H](c4ccc(O)c(F)c4)S(=O)(=O)O)[C@H]3S2)C1=O` [compound 39], the MIC in the experiment on E. coli TK-3 (TK3, 20 h) came out at 3.13 µg/mL (≈ 5.56 µM); against S. marcescens W-8 (W8, 20 h), 0.78 µg/mL (≈ 1.39 µM).

For `O=CNN1CCN([C@]2(C(=O)O)CN3C(=O)[C@@H](NC(=O)C(C(=O)O)c4ccccc4)[C@H]3S2)C1=O` (stereo partly shown) [compound 7], the minimum inhibitory concentration (MIC) with E. coli TK-3 (setting [1]) stood at 12.5 µg/mL (≈ 26.2 µM); in the experiment on S. marcescens W-8 (setting [2]), 6.25 µg/mL (≈ 13.1 µM).

Regarding `CC(=O)Oc1cc(Cl)c([C@H](C(=O)N[C@@H]2C(=O)N3C[C@@](C(=O)O)(N4CCN(N=CC=NNC(N)=O)C4=O)S[C@H]23)S(=O)(=O)O)cc1OC(C)=O` [compound 34], the MIC with E. coli TK-3 (setting [1]) was 0.2 µg/mL (≈ 0.273 µM); in the experiment on S. marcescens W-8 (W8, 20 h), 0.39 µg/mL (≈ 0.532 µM).

`O=C(O)C(C(=O)N[C@@H]1C(=O)N2C[C@@](C(=O)O)(N3CCN(N=Cc4ccco4)C3=O)S[C@H]12)c1ccccc1` (stereo partly shown) [compound 2]: the MIC in the experiment with E. coli TK-3 (setting [1]) and in the experiment with S. marcescens W-8 (setting [2]) was 0.39 µg/mL (≈ 0.739 µM) throughout.

Turning to `N#CC=CC=NN1CCN([C@]2(C(=O)O)CN3C(=O)[C@@H](NC(=O)C(C(=O)O)c4ccccc4)[C@H]3S2)C1=O` (stereo partly shown) [compound 31], the MIC in the experiment with E. coli TK-3 (setting [1]) amounted to 0.2 µg/mL (≈ 0.39 µM); in the experiment with S. marcescens W-8 (setting [2]), 0.1 µg/mL (≈ 0.195 µM).

Values taken from patent publication US5185330A, “Penam derivatives and salts thereof, and antibacterial agent comprising the same” (Toyama Chemical Co., Ltd., priority 1989, dated 1993).
